Results taken from PubChem BioAssay (NCI).
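Exposure lasted 48 hours, with cells grown in 96-well plates and compounds tested at five concentrations. GI50 is the concentration that inhibits growth by half. TGI denotes the concentration required for complete inhibition of growth.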

How the values were obtained:
Experiment in all cases: growth of human tumour cells (NCI), 48 h
786-0 renal = system: 786-0 renal
A498 renal = system: A498 renal
A549 NSCLC = system: A549 NSCLC
ACHN renal = system: ACHN renal
CAKI-1 renal = system: CAKI-1 renal
CCRF-CEM leukemia = system: CCRF-CEM leukemia
COLO 205 colon = system: COLO 205 colon
DU-145 prostate = system: DU-145 prostate
EKVX NSCLC = system: EKVX NSCLC
HCC-2998 colon = system: HCC-2998 colon
HCT-116 colon = system: HCT-116 colon
HCT-15 colon = system: HCT-15 colon
HL-60(TB) leukemia = system: HL-60(TB) leukemia
HOP-62 NSCLC = system: HOP-62 NSCLC
HOP-92 NSCLC = system: HOP-92 NSCLC
HT29 colon = system: HT29 colon
IGROV1 ovarian = system: IGROV1 ovarian
K-562 leukemia = system: K-562 leukemia
KM12 colon = system: KM12 colon
LOX IMVI melanoma = system: LOX IMVI melanoma
M14 melanoma = system: M14 melanoma
MCF7 breast = system: MCF7 breast
MDA-MB-231 breast = system: MDA-MB-231 breast
MDA-MB-435 = system: MDA-MB-435
MDA-N = system: MDA-N
MOLT-4 leukemia = system: MOLT-4 leukemia
NCI-H226 lung = system: NCI-H226 lung
NCI-H23 lung = system: NCI-H23 lung
NCI-H460 lung = system: NCI-H460 lung
NCI-H522 lung = system: NCI-H522 lung
NCI/ADR-RES ovarian = system: NCI/ADR-RES ovarian
OVCAR-3 ovarian = system: OVCAR-3 ovarian
OVCAR-4 ovarian = system: OVCAR-4 ovarian
OVCAR-5 ovarian = system: OVCAR-5 ovarian
OVCAR-8 ovarian = system: OVCAR-8 ovarian
PC-3 prostate = system: PC-3 prostate
RPMI-8226 leukemia = system: RPMI-8226 leukemia
RXF 393 renal = system: RXF 393 renal
SF-268 CNS = system: SF-268 CNS
SF-295 CNS = system: SF-295 CNS
SF-539 CNS = system: SF-539 CNS
SK-MEL-2 melanoma = system: SK-MEL-2 melanoma
SK-MEL-28 melanoma = system: SK-MEL-28 melanoma
SK-MEL-5 melanoma = system: SK-MEL-5 melanoma
SK-OV-3 ovarian = system: SK-OV-3 ovarian
SN12C renal = system: SN12C renal
SNB-75 CNS = system: SNB-75 CNS
SR leukemia = system: SR leukemia
SW-620 colon = system: SW-620 colon
T-47D breast = system: T-47D breast
TK-10 renal = system: TK-10 renal
U251 CNS = system: U251 CNS
UACC-62 melanoma = system: UACC-62 melanoma
UO-31 renal = system: UO-31 renal
BT-549 breast = system: BT-549 breast
HS 578T breast = system: HS 578T breast
MALME-3M melanoma = system: MALME-3M melanoma
SNB-19 CNS = system: SNB-19 CNS
UACC-257 melanoma = system: UACC-257 melanoma

CC(C)C(NC(=O)C(Cc1ccccc1)NC(=O)[C@H]1CCC[C@H]1NC(=O)C(Cc1ccc(OC(C)(C)C)cc1)NC(=O)OC(C)(C)C)C(N)=O (stereo partly drawn)
TGI (786-0 renal): > 100 µM | TGI (A498 renal): 27.6 µM | TGI (A549 NSCLC): 45.5 µM | TGI (ACHN renal): > 100 µM | TGI (CAKI-1 renal): > 100 µM | TGI (CCRF-CEM leukemia): 39.4 µM | TGI (COLO 205 colon): 36.9 µM | TGI (DU-145 prostate): > 100 µM | TGI (EKVX NSCLC): > 100 µM | TGI (HCC-2998 colon): 30.5 µM | TGI (HCT-116 colon): 32.1 µM | TGI (HCT-15 colon): > 100 µM | TGI (HL-60(TB) leukemia): > 100 µM | TGI (HOP-62 NSCLC): 32.5 µM | TGI (HOP-92 NSCLC): 48.9 µM | TGI (HT29 colon): 53.3 µM | TGI (IGROV1 ovarian): > 100 µM | TGI (K-562 leukemia): 44.4 µM | TGI (KM12 colon): 41.8 µM | TGI (LOX IMVI melanoma): 30.3 µM | TGI (M14 melanoma): 33.6 µM | TGI (MCF7 breast): 35.9 µM | TGI (MDA-MB-231 breast): 49.5 µM | TGI (MDA-MB-435): 34.3 µM | TGI (MDA-N): 35 µM | TGI (MOLT-4 leukemia): 46.5 µM | TGI (NCI-H226 lung): 37.8 µM | TGI (NCI-H23 lung): 35.7 µM | TGI (NCI-H460 lung): 38.8 µM | TGI (NCI-H522 lung): 30.7 µM | TGI (NCI/ADR-RES ovarian): > 100 µM | TGI (OVCAR-3 ovarian): 69.3 µM | TGI (OVCAR-4 ovarian): 65.4 µM | TGI (OVCAR-5 ovarian): 36.2 µM | TGI (OVCAR-8 ovarian): 34.9 µM | TGI (PC-3 prostate): 54 µM | TGI (RPMI-8226 leukemia): > 100 µM | TGI (RXF 393 renal): > 100 µM | TGI (SF-268 CNS): 70 µM | TGI (SF-295 CNS): 34.5 µM | TGI (SF-539 CNS): 33.8 µM | TGI (SK-MEL-2 melanoma): 41.6 µM | TGI (SK-MEL-28 melanoma): 40 µM | TGI (SK-MEL-5 melanoma): 21.5 µM | TGI (SK-OV-3 ovarian): 57.6 µM | TGI (SN12C renal): 35.2 µM | TGI (SNB-75 CNS): 29.2 µM | TGI (SR leukemia): > 100 µM | TGI (SW-620 colon): 51.3 µM | TGI (T-47D breast): 46.9 µM | TGI (TK-10 renal): 72 µM | TGI (U251 CNS): 28.3 µM | TGI (UACC-62 melanoma): 40.5 µM | TGI (UO-31 renal): > 100 µM

O=C(/C=C/c1ccc([N+](=O)[O-])cc1)c1cccc(Nc2nc(Nc3ccccc3)nc(Nc3ccccc3)n2)c1
GI50 (786-0 renal): 13 µM | TGI (786-0 renal): 43.1 µM | GI50 (A498 renal): 11.8 µM | TGI (A498 renal): 28.1 µM | GI50 (A549 NSCLC): 25 µM | TGI (A549 NSCLC): > 100 µM | GI50 (ACHN renal): 27 µM | TGI (ACHN renal): > 100 µM | GI50 (BT-549 breast): 27 µM | TGI (BT-549 breast): > 100 µM | GI50 (CAKI-1 renal): 25.2 µM | TGI (CAKI-1 renal): > 100 µM | GI50 (CCRF-CEM leukemia): 3.85 µM | TGI (CCRF-CEM leukemia): 25.6 µM | GI50 (COLO 205 colon): 13 µM | TGI (COLO 205 colon): 61.2 µM | GI50 (DU-145 prostate): 28.2 µM | TGI (DU-145 prostate): > 100 µM | GI50 (EKVX NSCLC): 22.3 µM | TGI (EKVX NSCLC): > 100 µM | GI50 (HCC-2998 colon): 18.1 µM | TGI (HCC-2998 colon): 68.6 µM | GI50 (HCT-15 colon): 17.7 µM | TGI (HCT-15 colon): > 100 µM | GI50 (HL-60(TB) leukemia): 8.82 µM | TGI (HL-60(TB) leukemia): 37.7 µM | GI50 (HOP-62 NSCLC): 32.2 µM | TGI (HOP-62 NSCLC): > 100 µM | GI50 (HOP-92 NSCLC): 0.662 µM | TGI (HOP-92 NSCLC): 8.5 µM | GI50 (HS 578T breast): 1.35 µM | TGI (HS 578T breast): 5.97 µM | GI50 (HT29 colon): 7.79 µM | TGI (HT29 colon): > 100 µM | GI50 (IGROV1 ovarian): 0.671 µM | TGI (IGROV1 ovarian): 63.1 µM | GI50 (K-562 leukemia): 2.89 µM | TGI (K-562 leukemia): 28.2 µM | GI50 (KM12 colon): 5.04 µM | TGI (KM12 colon): 29.5 µM | GI50 (LOX IMVI melanoma): 11.1 µM | TGI (LOX IMVI melanoma): 44.6 µM | GI50 (M14 melanoma): 21.6 µM | TGI (M14 melanoma): 90.6 µM | GI50 (MALME-3M melanoma): 38.8 µM | TGI (MALME-3M melanoma): > 100 µM | GI50 (MCF7 breast): 1.19 µM | TGI (MCF7 breast): 4.21 µM | GI50 (MDA-MB-231 breast): 10.7 µM | TGI (MDA-MB-231 breast): 41.9 µM | GI50 (MDA-MB-435): 20 µM | TGI (MDA-MB-435): > 100 µM | GI50 (MOLT-4 leukemia): 2.6 µM | TGI (MOLT-4 leukemia): 20 µM | GI50 (NCI-H226 lung): 14.4 µM | TGI (NCI-H226 lung): 44.9 µM | GI50 (NCI-H23 lung): 17.5 µM | TGI (NCI-H23 lung): 98.3 µM | GI50 (NCI-H460 lung): 9.63 µM | TGI (NCI-H460 lung): 38 µM | GI50 (NCI-H522 lung): 12.4 µM | TGI (NCI-H522 lung): > 100 µM | GI50 (NCI/ADR-RES ovarian): 18.2 µM | TGI (NCI/ADR-RES ovarian): > 100 µM | GI50 (OVCAR-3 ovarian): 11.3 µM | TGI (OVCAR-3 ovarian): 63.4 µM | GI50 (OVCAR-4 ovarian): 22.1 µM | TGI (OVCAR-4 ovarian): > 100 µM | GI50 (OVCAR-5 ovarian): 51 µM | TGI (OVCAR-5 ovarian): > 100 µM | GI50 (OVCAR-8 ovarian): 14 µM | TGI (OVCAR-8 ovarian): > 100 µM | GI50 (PC-3 prostate): 3.15 µM | TGI (PC-3 prostate): 30.7 µM | GI50 (RPMI-8226 leukemia): 1.66 µM | TGI (RPMI-8226 leukemia): 6.31 µM | GI50 (RXF 393 renal): 5.99 µM | TGI (RXF 393 renal): 30.1 µM | GI50 (SF-268 CNS): 17.6 µM | TGI (SF-268 CNS): > 100 µM | GI50 (SF-295 CNS): 9.81 µM | TGI (SF-295 CNS): > 100 µM | GI50 (SF-539 CNS): 12.7 µM | TGI (SF-539 CNS): 35.5 µM | GI50 (SK-MEL-2 melanoma): 17.7 µM | TGI (SK-MEL-2 melanoma): 54.6 µM | GI50 (SK-MEL-28 melanoma): 12.5 µM | TGI (SK-MEL-28 melanoma): 40.1 µM | GI50 (SK-MEL-5 melanoma): 1.13 µM | TGI (SK-MEL-5 melanoma): 17.6 µM | GI50 (SK-OV-3 ovarian): 73.8 µM | TGI (SK-OV-3 ovarian): > 100 µM | GI50 (SN12C renal): 26.8 µM | TGI (SN12C renal): > 100 µM | GI50 (SNB-19 CNS): 79.8 µM | TGI (SNB-19 CNS): > 100 µM | GI50 (SNB-75 CNS): 4.52 µM | TGI (SNB-75 CNS): 94.8 µM | GI50 (SR leukemia): 0.484 µM | TGI (SR leukemia): 6.92 µM | GI50 (SW-620 colon): 4.08 µM | TGI (SW-620 colon): 65.9 µM | GI50 (T-47D breast): 9.75 µM | TGI (T-47D breast): > 100 µM | GI50 (TK-10 renal): 54.3 µM | TGI (TK-10 renal): > 100 µM | GI50 (U251 CNS): 12 µM | TGI (U251 CNS): > 100 µM | GI50 (UACC-257 melanoma): 68.7 µM | TGI (UACC-257 melanoma): > 100 µM | GI50 (UACC-62 melanoma): 21.7 µM | TGI (UACC-62 melanoma): > 100 µM | GI50 (UO-31 renal): 2.18 µM | TGI (UO-31 renal): > 100 µM
